The source of these data is ChEMBL document CHEMBL1141196, “Grafting aminocyclopentane carboxylic acids onto the RGD tripeptide sequence generates low nanomolar alphaVbeta3/alphaVbeta5 integrin dual binders” (J Med Chem, 2005).

A word on the IC50: it is the concentration that inhibits the measured activity by half.

One assay deals with Integrin alpha-V/beta-3 (Homo sapiens, UniProt P05106+P06756). Nature of the assay: Displacement of [125I]-echistatin from alphavbeta3 integrin receptor. The assay is classed as protein-complex assay.
Chain of Integrin alpha-V/beta-3 (P05106 27-788 limits assumed): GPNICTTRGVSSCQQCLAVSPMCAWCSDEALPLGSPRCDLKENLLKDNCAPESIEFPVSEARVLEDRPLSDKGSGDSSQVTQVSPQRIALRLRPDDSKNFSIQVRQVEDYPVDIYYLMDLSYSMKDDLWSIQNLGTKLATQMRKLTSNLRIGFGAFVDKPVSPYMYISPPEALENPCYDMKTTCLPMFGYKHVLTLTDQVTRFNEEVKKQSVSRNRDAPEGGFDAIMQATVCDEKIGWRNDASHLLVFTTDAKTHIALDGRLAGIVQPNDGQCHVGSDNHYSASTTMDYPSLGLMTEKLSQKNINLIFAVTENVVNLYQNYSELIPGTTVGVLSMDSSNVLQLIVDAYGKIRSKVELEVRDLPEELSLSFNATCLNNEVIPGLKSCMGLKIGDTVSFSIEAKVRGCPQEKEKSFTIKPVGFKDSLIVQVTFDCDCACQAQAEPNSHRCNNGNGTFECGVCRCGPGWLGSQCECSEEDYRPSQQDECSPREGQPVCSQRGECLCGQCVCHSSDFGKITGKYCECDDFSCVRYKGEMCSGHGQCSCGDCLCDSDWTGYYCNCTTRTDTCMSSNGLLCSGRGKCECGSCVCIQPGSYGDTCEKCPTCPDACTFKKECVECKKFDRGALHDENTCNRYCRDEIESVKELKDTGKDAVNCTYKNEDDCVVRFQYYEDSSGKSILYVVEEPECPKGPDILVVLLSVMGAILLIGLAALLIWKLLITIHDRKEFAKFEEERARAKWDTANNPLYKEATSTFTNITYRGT
Chain of Integrin alpha-V/beta-3 (P06756 31-889 limits assumed): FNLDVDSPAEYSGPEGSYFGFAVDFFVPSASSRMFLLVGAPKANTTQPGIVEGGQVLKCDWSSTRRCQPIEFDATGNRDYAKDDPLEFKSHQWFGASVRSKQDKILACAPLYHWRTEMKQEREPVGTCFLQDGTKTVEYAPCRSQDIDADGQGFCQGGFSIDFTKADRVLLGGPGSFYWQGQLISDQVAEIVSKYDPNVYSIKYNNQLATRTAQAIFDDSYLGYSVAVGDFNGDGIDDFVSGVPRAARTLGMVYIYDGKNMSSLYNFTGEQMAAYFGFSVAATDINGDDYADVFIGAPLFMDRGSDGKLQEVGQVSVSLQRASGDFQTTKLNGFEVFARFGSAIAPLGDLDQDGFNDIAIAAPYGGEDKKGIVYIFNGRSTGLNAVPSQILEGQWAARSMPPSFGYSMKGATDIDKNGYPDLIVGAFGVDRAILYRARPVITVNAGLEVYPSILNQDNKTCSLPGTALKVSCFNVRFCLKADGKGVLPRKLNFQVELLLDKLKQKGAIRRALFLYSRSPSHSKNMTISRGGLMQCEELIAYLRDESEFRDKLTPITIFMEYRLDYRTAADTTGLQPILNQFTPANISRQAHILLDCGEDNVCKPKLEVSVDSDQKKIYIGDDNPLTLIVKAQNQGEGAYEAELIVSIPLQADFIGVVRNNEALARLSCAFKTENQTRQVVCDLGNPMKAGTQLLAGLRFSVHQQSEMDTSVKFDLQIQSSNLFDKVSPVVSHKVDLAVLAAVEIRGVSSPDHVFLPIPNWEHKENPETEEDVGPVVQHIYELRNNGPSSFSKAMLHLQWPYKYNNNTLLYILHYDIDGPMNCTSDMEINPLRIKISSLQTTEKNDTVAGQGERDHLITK
Chain of Integrin alpha-V/beta-3 (P06756 891-1048 limits assumed): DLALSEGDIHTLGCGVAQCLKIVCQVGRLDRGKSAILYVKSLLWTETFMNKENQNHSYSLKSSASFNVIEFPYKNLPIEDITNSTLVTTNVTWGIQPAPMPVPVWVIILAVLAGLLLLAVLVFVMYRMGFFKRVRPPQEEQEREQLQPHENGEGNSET
A further assay concerns the target Integrin alpha-V/beta-5 (Homo sapiens, UniProt P06756+P18084). In words: Displacement of [125I]-echistatin from alpha-v-beta-5 integrin receptor. The assay is classed as protein-complex assay. (In general: In a radioligand displacement assay an active substance lowers the binding of a labelled ligand.)

Chain of Integrin alpha-V/beta-5 (P06756 31-889 limits assumed): as the sequence (P06756 31-889 limits assumed) above
Chain of Integrin alpha-V/beta-5 (P06756 891-1048 limits assumed): as the sequence (P06756 891-1048 limits assumed) above
Chain of Integrin alpha-V/beta-5 (P18084 24-799 limits assumed): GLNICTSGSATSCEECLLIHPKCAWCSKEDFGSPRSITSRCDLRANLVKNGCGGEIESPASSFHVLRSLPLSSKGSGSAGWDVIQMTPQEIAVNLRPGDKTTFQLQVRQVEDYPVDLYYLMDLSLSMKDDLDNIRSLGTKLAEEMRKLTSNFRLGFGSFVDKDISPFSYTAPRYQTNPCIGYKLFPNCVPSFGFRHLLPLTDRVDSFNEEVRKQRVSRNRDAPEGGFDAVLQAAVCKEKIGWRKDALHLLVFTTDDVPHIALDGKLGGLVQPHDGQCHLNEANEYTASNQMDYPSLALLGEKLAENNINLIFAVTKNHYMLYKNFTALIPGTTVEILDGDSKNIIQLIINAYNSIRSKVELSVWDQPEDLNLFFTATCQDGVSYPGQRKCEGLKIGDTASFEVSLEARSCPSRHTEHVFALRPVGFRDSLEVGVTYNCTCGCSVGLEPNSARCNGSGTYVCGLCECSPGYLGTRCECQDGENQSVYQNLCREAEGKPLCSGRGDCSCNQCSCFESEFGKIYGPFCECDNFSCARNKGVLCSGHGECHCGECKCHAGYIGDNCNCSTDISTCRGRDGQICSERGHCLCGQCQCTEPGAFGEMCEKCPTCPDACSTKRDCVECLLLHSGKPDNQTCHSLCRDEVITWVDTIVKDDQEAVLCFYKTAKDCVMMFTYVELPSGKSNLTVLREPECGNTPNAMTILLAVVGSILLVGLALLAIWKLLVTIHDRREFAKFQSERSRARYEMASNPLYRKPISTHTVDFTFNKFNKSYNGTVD

Regarding `N=C(N)NCCC[C@@H]1NC(=O)[C@@H]2CC[C@H](C2)NC(=O)[C@H](CC(=O)O)NC(=O)CNC1=O`, the IC50 is 1.5 nM at Integrin alpha-V/beta-3 and 0.59 nM on Integrin alpha-V/beta-5.
Taken in the same sequence, the figures for `N=C(N)NCCC[C@@H]1NC(=O)[C@H]2C[C@@H](NC(=O)[C@H](CC(=O)O)NC(=O)CNC1=O)[C@H](O)[C@H]2O` were 133 nM and 411 nM.
For the molecule `N=C(N)NCCC[C@@H]1NC(=O)[C@@H]2C[C@@H](O)[C@@H](C2)NC(=O)[C@H](CC(=O)O)NC(=O)CNC1=O`, the values for the IC50 on Integrin alpha-V/beta-3 and at Integrin alpha-V/beta-5 were 7.2 nM and 13.1 nM, respectively.
`N=C(N)NCCC[C@@H]1NC(=O)[C@H]2CC[C@H](C2)NC(=O)[C@H](CC(=O)O)NC(=O)CNC1=O`: the IC50 came out at 4.6 nM on Integrin alpha-V/beta-3 and 3.43 nM at Integrin alpha-V/beta-5.
Turning to `N=C(N)NCCC[C@@H]1NC(=O)[C@@H]2C[C@H](NC(=O)[C@H](CC(=O)O)NC(=O)CNC1=O)[C@@H](O)C2`, the IC50 amounted to 5.6 nM on Integrin alpha-V/beta-3 and 4.56 nM at Integrin alpha-V/beta-5.
Taken in the same sequence, the figures for `N=C(N)NCCC[C@@H]1NC(=O)[C@H]2C[C@H](NC(=O)[C@H](CC(=O)O)NC(=O)CNC1=O)[C@@H](O)C2` were 35.6 nM and 29.6 nM.
Regarding `N=C(N)NCCC[C@@H]1NC(=O)[C@@H]2C[C@H](NC(=O)[C@H](CC(=O)O)NC(=O)CNC1=O)[C@@H](O)[C@H]2O`, the figures for the half-inhibitory concentration (IC50) on Integrin alpha-V/beta-3 and at Integrin alpha-V/beta-5 were 51.4 nM and 166 nM, respectively.
Taken in the same sequence, the figures for `N=C(N)NCCC[C@@H]1NC(=O)[C@@H]2CC[C@@H](C2)NC(=O)[C@H](CC(=O)O)NC(=O)CNC1=O` were 7.7 nM and 6.56 nM.
Taken in the same sequence, the figures for `N=C(N)NCCC[C@@H]1NC(=O)[C@H]2CC[C@@H](C2)NC(=O)[C@H](CC(=O)O)NC(=O)CNC1=O` were 9.93 nM and 26 nM.
Regarding `N=C(N)NCCC[C@@H]1NC(=O)[C@@H]2C[C@H](NC(=O)[C@H](CC(=O)O)NC(=O)CNC1=O)[C@@H](O)[C@@H]2O`, the values for the IC50 at Integrin alpha-V/beta-3 and on Integrin alpha-V/beta-5 were 44.7 nM and 125 nM, respectively.
Taken in the same sequence, the figures for `NC(N)=NCCC[C@@H]1NC(=O)[C@H]2CC[C@@H]3CCC[C@H](NC(=O)[C@H](CC(=O)O)NC(=O)CNC1=O)C(=O)N32` were 1.4 nM and 1.16 nM.
Taken in the same sequence, the figures for `N=C(N)NCCC[C@@H]1NC(=O)[C@H]2C[C@@H](NC(=O)[C@H](CC(=O)O)NC(=O)CNC1=O)[C@H](O)[C@@H]2O` were 713 nM and 1300 nM.
